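96-well plates; 48 h exposure; 5 concentrations. Endpoints by linear interpolation between flanking doses. Not reached: highest tested concentration assigned. GI50: concentration for 50% inhibition of growth. TGI: total growth inhibition.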
Assays:
Test in all cases: NCI tumour cell line growth inhibition, 48 h
HCC-2998 colon = tested on: HCC-2998 colon
SK-MEL-2 melanoma = tested on: SK-MEL-2 melanoma
HOP-92 NSCLC = tested on: HOP-92 NSCLC
NCI-H226 lung = tested on: NCI-H226 lung
ACHN renal = tested on: ACHN renal
PC-3 prostate = tested on: PC-3 prostate
SW-620 colon = tested on: SW-620 colon
RXF 393 renal = tested on: RXF 393 renal
IGROV1 ovarian = tested on: IGROV1 ovarian
SF-539 CNS = tested on: SF-539 CNS
T-47D breast = tested on: T-47D breast
MOLT-4 leukemia = tested on: MOLT-4 leukemia
UACC-257 melanoma = tested on: UACC-257 melanoma
K-562 leukemia = tested on: K-562 leukemia
786-0 renal = tested on: 786-0 renal
COLO 205 colon = tested on: COLO 205 colon
NCI/ADR-RES ovarian = tested on: NCI/ADR-RES ovarian
SK-MEL-28 melanoma = tested on: SK-MEL-28 melanoma
LOX IMVI melanoma = tested on: LOX IMVI melanoma
HOP-62 NSCLC = tested on: HOP-62 NSCLC
MCF7 breast = tested on: MCF7 breast
A498 renal = tested on: A498 renal
SF-268 CNS = tested on: SF-268 CNS
SK-OV-3 ovarian = tested on: SK-OV-3 ovarian
NCI-H522 lung = tested on: NCI-H522 lung
DU-145 prostate = tested on: DU-145 prostate
OVCAR-3 ovarian = tested on: OVCAR-3 ovarian
MDA-MB-435 = tested on: MDA-MB-435
TK-10 renal = tested on: TK-10 renal
HT29 colon = tested on: HT29 colon
MDA-MB-231 breast = tested on: MDA-MB-231 breast
M14 melanoma = tested on: M14 melanoma
SF-295 CNS = tested on: SF-295 CNS
HL-60(TB) leukemia = tested on: HL-60(TB) leukemia
UO-31 renal = tested on: UO-31 renal
SN12C renal = tested on: SN12C renal
OVCAR-4 ovarian = tested on: OVCAR-4 ovarian
BT-549 breast = tested on: BT-549 breast
OVCAR-8 ovarian = tested on: OVCAR-8 ovarian
RPMI-8226 leukemia = tested on: RPMI-8226 leukemia
SR leukemia = tested on: SR leukemia
SNB-75 CNS = tested on: SNB-75 CNS
HS 578T breast = tested on: HS 578T breast
SK-MEL-5 melanoma = tested on: SK-MEL-5 melanoma
OVCAR-5 ovarian = tested on: OVCAR-5 ovarian
HCT-116 colon = tested on: HCT-116 colon
CAKI-1 renal = tested on: CAKI-1 renal
U251 CNS = tested on: U251 CNS
HCT-15 colon = tested on: HCT-15 colon
UACC-62 melanoma = tested on: UACC-62 melanoma
A549 NSCLC = tested on: A549 NSCLC
CCRF-CEM leukemia = tested on: CCRF-CEM leukemia
MALME-3M melanoma = tested on: MALME-3M melanoma
SNB-19 CNS = tested on: SNB-19 CNS
NCI-H460 lung = tested on: NCI-H460 lung
NCI-H23 lung = tested on: NCI-H23 lung
EKVX NSCLC = tested on: EKVX NSCLC
KM12 colon = tested on: KM12 colon

COc1ccc(-c2nn(C(=O)NCCN(C)C)cc2-c2ccncc2)cc1Cl
GI50 (HCC-2998 colon): 10.1 µM | TGI (HCC-2998 colon): 46.4 µM | GI50 (SK-MEL-2 melanoma): 3.67 µM | TGI (SK-MEL-2 melanoma): 9.48 µM | GI50 (HOP-92 NSCLC): 1.16 µM | TGI (HOP-92 NSCLC): 56.3 µM | GI50 (NCI-H226 lung): 4.11 µM | TGI (NCI-H226 lung): 63.7 µM | GI50 (ACHN renal): 3.76 µM | TGI (ACHN renal): > 100 µM | GI50 (PC-3 prostate): 4.62 µM | TGI (PC-3 prostate): > 100 µM | GI50 (SW-620 colon): 3.35 µM | TGI (SW-620 colon): > 100 µM | GI50 (RXF 393 renal): 2.19 µM | TGI (RXF 393 renal): 12.8 µM | GI50 (IGROV1 ovarian): 8.74 µM | TGI (IGROV1 ovarian): > 100 µM | GI50 (SF-539 CNS): 2.28 µM | TGI (SF-539 CNS): 13.1 µM | GI50 (T-47D breast): 11.6 µM | TGI (T-47D breast): > 100 µM | GI50 (MOLT-4 leukemia): 4.67 µM | TGI (MOLT-4 leukemia): > 100 µM | GI50 (UACC-257 melanoma): 16.6 µM | TGI (UACC-257 melanoma): > 100 µM | GI50 (K-562 leukemia): 5.66 µM | TGI (K-562 leukemia): > 100 µM | GI50 (786-0 renal): 7.62 µM | TGI (786-0 renal): 51.5 µM | GI50 (COLO 205 colon): 3.5 µM | TGI (COLO 205 colon): 13.9 µM | GI50 (NCI/ADR-RES ovarian): 3.1 µM | TGI (NCI/ADR-RES ovarian): > 100 µM | GI50 (SK-MEL-28 melanoma): 4.01 µM | TGI (SK-MEL-28 melanoma): 38.3 µM | GI50 (LOX IMVI melanoma): 4.23 µM | TGI (LOX IMVI melanoma): 48.9 µM | GI50 (HOP-62 NSCLC): 2.99 µM | TGI (HOP-62 NSCLC): 20.9 µM | GI50 (MCF7 breast): 3.57 µM | TGI (MCF7 breast): > 100 µM | GI50 (A498 renal): 2.12 µM | TGI (A498 renal): 5.95 µM | GI50 (SF-268 CNS): 3.68 µM | TGI (SF-268 CNS): 37.2 µM | GI50 (SK-OV-3 ovarian): 3.12 µM | TGI (SK-OV-3 ovarian): 15.5 µM | GI50 (NCI-H522 lung): 1.88 µM | TGI (NCI-H522 lung): 5.36 µM | GI50 (DU-145 prostate): 6.94 µM | TGI (DU-145 prostate): 65.6 µM | GI50 (OVCAR-3 ovarian): 4.32 µM | TGI (OVCAR-3 ovarian): 39.1 µM | GI50 (MDA-MB-435): 1.15 µM | TGI (MDA-MB-435): 4.34 µM | GI50 (TK-10 renal): 1.86 µM | TGI (TK-10 renal): 56.1 µM | GI50 (HT29 colon): 2.17 µM | TGI (HT29 colon): 12.6 µM | GI50 (MDA-MB-231 breast): 6.34 µM | TGI (MDA-MB-231 breast): > 100 µM | GI50 (M14 melanoma): 5.52 µM | TGI (M14 melanoma): 24.4 µM | GI50 (SF-295 CNS): 3 µM | TGI (SF-295 CNS): 42.6 µM | GI50 (HL-60(TB) leukemia): 5.3 µM | TGI (HL-60(TB) leukemia): 57.9 µM | GI50 (UO-31 renal): 8.62 µM | TGI (UO-31 renal): 53.6 µM | GI50 (SN12C renal): 5.39 µM | TGI (SN12C renal): > 100 µM | GI50 (OVCAR-4 ovarian): 7.87 µM | TGI (OVCAR-4 ovarian): > 100 µM | GI50 (BT-549 breast): 4.51 µM | TGI (BT-549 breast): > 100 µM | GI50 (OVCAR-8 ovarian): 1.73 µM | TGI (OVCAR-8 ovarian): 35.9 µM | GI50 (RPMI-8226 leukemia): 9.71 µM | TGI (RPMI-8226 leukemia): 81.8 µM | GI50 (SR leukemia): 6.03 µM | TGI (SR leukemia): > 100 µM | GI50 (SNB-75 CNS): 1.68 µM | TGI (SNB-75 CNS): 6.19 µM | GI50 (HS 578T breast): 2.79 µM | TGI (HS 578T breast): 9.21 µM | GI50 (SK-MEL-5 melanoma): 3.05 µM | TGI (SK-MEL-5 melanoma): 11.4 µM | GI50 (OVCAR-5 ovarian): 15.1 µM | TGI (OVCAR-5 ovarian): > 100 µM | GI50 (HCT-116 colon): 4.6 µM | TGI (HCT-116 colon): > 100 µM | GI50 (CAKI-1 renal): 3.24 µM | TGI (CAKI-1 renal): 24.4 µM | GI50 (U251 CNS): 3.71 µM | TGI (U251 CNS): > 100 µM | GI50 (HCT-15 colon): 3.93 µM | TGI (HCT-15 colon): > 100 µM | GI50 (UACC-62 melanoma): 3.07 µM | TGI (UACC-62 melanoma): 14.3 µM | GI50 (A549 NSCLC): 5.44 µM | TGI (A549 NSCLC): > 100 µM | GI50 (CCRF-CEM leukemia): 7.47 µM | TGI (CCRF-CEM leukemia): > 100 µM | GI50 (MALME-3M melanoma): 11.8 µM | TGI (MALME-3M melanoma): > 100 µM | GI50 (SNB-19 CNS): 5.15 µM | TGI (SNB-19 CNS): > 100 µM | GI50 (NCI-H460 lung): 3.83 µM | TGI (NCI-H460 lung): 35.4 µM | GI50 (NCI-H23 lung): 6.29 µM | TGI (NCI-H23 lung): 60.7 µM | GI50 (EKVX NSCLC): 2.23 µM | TGI (EKVX NSCLC): > 100 µM | GI50 (KM12 colon): 4.01 µM | TGI (KM12 colon): 43.5 µM

From PubChem BioAssay (NCI)
